From a melting point compilation (Tetko et al.; mined from patent text by program, amines drawn as free bases though some values may be those of a salt)

SMILES | melting point [°C]
CCOC(=O)C1COc2cc(-c3ccccc3)ccc2O1 (stereo not given) | 103 to 105
COc1ccc2c(c1)CNCCO2 | 96 to 97
CC(=O)SCC(=O)Nc1ccc(C(=O)NCCO)cc1 | 190 to 192
O=C(O)CCc1ccc(OCCc2ccccc2)cc1 | 91 to 92
COCc1ccc(CCCOc2c(C)cc(-c3noc(C(F)(F)F)n3)cc2C)cn1 | 50 to 53
COCCCn1nnnc1-c1cc(-c2cccc(C)c2)c(O)cc1O | 137 to 140
CCc1cnc(N2CCC(c3ccc4[nH]c(-c5ccc(S(C)(=O)=O)cc5F)nc4c3)CC2)nc1 | 220 to 224
COc1ccc2c(c1)CCC1C2CCC2(C)C(OC(C)=O)=CCC12 (stereo not given) | 97 to 100
CCOC(=O)c1sc(-n2ccc(OCc3ccc(F)cc3)cc2=O)nc1C | 214 to 217
COC(=O)c1cccc2c1Oc1ccccc1N2 | 113 to 114
O=CC(=O)c1ccc(OCc2ccccc2)c(CO)c1 | 180 to 181
Cc1nnc(SCC2=C(C(=O)O)N3C(=O)C(NC(=O)CC4=CSCCS4)C3SC2)s1 (stereo not given) | 170
CCCN1CCn2c(=S)[nH]c3cccc(c32)C1C (stereo not given) | 179
Cc1ncn(Nc2cccc(Cl)c2)c1-c1ccccc1 | 218
Cn1cc(C(=O)NCc2ccc(C#N)cc2)c(=O)c2cc(C#CCO)ccc21 | 230 to 232
CCCCN=C(O)c1c(Sc2ccccc2)c(Sc2ccccc2)c(Sc2ccccc2)c(Sc2ccccc2)c1C(=O)O | 159 to 160
O=C(c1cccs1)c1cnn2c(Cl)ccnc12 | 148 to 150
COc1cc2c3c(c1)c(=O)c(C(=O)O)cn3CCC2 | 253 to 257
CC#CC(C)(C)NC(=O)C(CC)Oc1cc(C#N)cc(OC)c1 (stereo not given) | 97 to 98
COC(=O)C(OC)C(=O)Nc1cc(Cl)cc(Cl)c1 (stereo not given) | 116 to 118
Cc1cc(C(=S)NCc2ccc(Br)cc2F)c(OCC(=O)O)cc1F | 162 to 164
CC1(C)[C@@H](NCC(=O)N2C[C@@H](F)C[C@H]2C#N)CC[C@@]1(C)c1nc(-c2ccc(F)cc2)no1 | 127 to 131
ClCCCCOc1cccc(OCCCCCl)c1 | 85 to 86
Nc1c(Cl)cnc(OCCO)c1Cl | 77.5 to 81
O=S(=O)(c1ccccc1)N1CC2CCC(C1)O2 | 166 to 168
COC(=O)c1ccc(-c2nc(-c3ccc(C(C)C)cc3)cs2)cc1 | 134 to 135
Cc1ccc(Nc2c([N+](=O)[O-])ccc(Cl)c2C(=O)O)cc1 | 192 to 197

SMILES | melting point [°C]
CC1(C)CCC(C)(C)c2cc(C(O)CCC(=O)O)ccc21 (stereo not given) | 10
CCN(CC)c1ccc2nc3c4ccccc4c(=Nc4cccnc4)cc-3oc2c1 | 198 to 199
COc1cc(Nc2c(C#N)cnc3cc(/C=C/CCN4CCCCC4)c(OC)cc23)c(Cl)cc1Cl | 140 to 142
Cc1cc(-n2ccnc2)c2cccc(OCc3c(Cl)ccc(S(=O)(=O)N4CCC[C@H]4C(=O)NCC4CCN(Cc5cccnc5)CC4)c3Cl)c2n1 | 107
COc1cc(C(=O)c2csc(-c3ccncc3)n2)cc(OC)c1OC | 178 to 180
OC(Cc1ccccc1)c1ccccc1Br (stereo not given) | 84 to 85
COc1cc2c(c(Cl)c1Cl)CCC2 | 78 to 82
CCOC(=O)C(C)(Sc1nc2ccc(OCC)cc2s1)c1ccccc1 (stereo not given) | 92 to 94
COC(=O)N1CCCC2CN(c3ccc(N4CC(CNC(C)=O)OC4=O)cc3F)CC21 (stereo not given) | 83 to 85
OC(CNCc1ccccc1)C(c1ccccc1)c1ccccc1 (stereo not given) | 123 to 124
CCC(Oc1ccc(Cl)c(C(F)(F)F)c1)C(=O)NCc1ccccc1 (stereo not given) | 93 to 95
Cc1cc(-c2nnc3c4ccccc4c(OCc4ccncc4)nn23)no1 | 244 to 246
CCN(CC)c1nc2n(n1)Cc1ccccc1-2 | 234 to 236
CC(C)(CO)CNC(=O)c1n[nH]cc1NC(=O)c1ccccn1 | 217 to 218
CS(=O)(=O)OCCN(CCOS(C)(=O)=O)c1cc(C(=O)O)c([N+](=O)[O-])cc1[N+](=O)[O-] | 200 to 210
Cc1cc(=O)n(C)c(=O)n1C | 113 to 114
Cc1ccc([N+](=O)[O-])cc1-c1cn(C)cc(-c2ccccc2)c1=O | 185 to 187
COC(=O)c1cc(-c2ccncc2)[nH]c1-c1ccncc1 | > 270
CCOC(=O)c1cc2cc(N)ccc2nn1 | 204 to 206
O=C(O)COc1ccc2c(-c3ccoc3)noc2c1Cl | 225 to 227
C=CCNc1nc(C)cc(C)n1 | 62 to 63
COc1ccc(CC(=O)Nc2c(C)c(C)c3oc(C)c(-c4ccc(C(C)C)cc4)c3c2C)cc1 | 202 to 204
CC(C)CC(=Cc1ccccc1)C(=O)O | 66 to 67.5
NC(=O)c1c(Cl)c(-c2ccccc2)n2c1CN(C(=O)Nc1ccc(C(=O)O)cc1)CC2 | 281 to 283
CCCOc1ccc2c(c1)C(=O)c1cccc(OC)c1-2 | 96 to 97
CC(C)(C)CNc1nc(Nc2cccc(NS(C)(=O)=O)c2)nc2[nH]cnc12 | 270 to 273
O=C(O)c1csc2c(=O)cc(-c3ccccc3)oc12 | 282 to 283

SMILES | melting point [°C]
O=C(CN1CCC(c2noc3cc(F)ccc23)CC1)N1Cc2ccccc2C1 | 184 to 185
COc1ccc(-c2ccc(C(C)=O)cc2[N+](=O)[O-])c(OC)c1 | 129 to 131
COC(=O)C(=NOCc1ccccc1)C(C)=O | 35 to 36
CCOC(=O)c1cnn2c1nc(NCCCN(C)C)c1cnc3c(cnn3CC)c12 | 212 to 215
CCCCOc1ccc(OCCN2CCN(c3cc(Cl)nnc3Cl)CC2)cc1 | 135 to 136
c1ccc(N2CCN(CCCCc3cccnc3)CC2)nc1 | 54 to 64
O=C(O)Cc1ccc(CO[N+](=O)[O-])cc1 | 109 to 110
N#Cc1ccc(Oc2ccc(-c3ccc(Oc4ccc(C#N)c(C#N)c4)cc3)cc2)cc1C#N | 230 to 232
CNC(=S)SCCC(=O)N1CCC[C@H]1C(=O)O | 127 to 129
CC(c1cccnn1)c1cccc(Cl)c1Cl (stereo not given) | 96 to 98
COc1ccccc1CCN1CC(=O)N(c2cnn(Cc3c(C)noc3C)c2)C1=O | 97 to 98
CON1C=C2C=C(SC)N=C(Cl)N2N1 | 243 to 244
COc1ccc2nc3ccc(OC)cc3c(C(=O)O)c2c1 | 192 to 193
COc1cc(C=NNC2=NCCc3ccccc32)cc(OC)c1O | 232 to 233
CC(C)NS(=O)(=O)c1sccc1-c1cccc2cc(-c3ncc(CCl)s3)[nH]c12 | 184 to 185
COc1cc2nc(-c3cccs3)cc(C(=O)O)c2cc1OC | 260 to 263
O=C1N(Cc2ccc(-c3ccccc3Cl)o2)c2ccccc2C12COc1cc3c(cc12)OCO3 (stereo not given) | 148 to 150
CNC(=O)c1cccc2cccc(C(=O)Nc3ccc(F)cc3C)c12 | 249
Cc1ccc(O)c(-c2ccc(Br)cc2)n1 | 196 to 199
CCCCCC(Oc1ccc(C2=CCCCCC2)cc1)C(=O)O (stereo not given) | 69 to 71
CCN(CC)C(=O)c1c(O)c(=O)cc(C)n1C | 128 to 130
COc1nc(C)nc(NC(=O)NS(=O)(=O)c2ccccc2OCC(Cl)CCl)n1 (stereo not given) | 117 to 118
CCC(c1oc2ccc(F)cc2c(=O)c1-c1ccccc1)n1cnc2c(N)ncnc21 (stereo not given) | 266 to 272
Cc1nnc(-c2ccc3occ(C#N)c3c2)o1 | 188 to 189
N=C(N)NCCCCOc1cccc2c1NC(=O)C(CC(=O)O)C2 (stereo not given) | 207 to 210
O=C(O)C(=O)c1ccc(OCC(=O)N2CCC(c3ccccc3)CC2)cc1 | 209 to 210
O=C(Oc1cc(F)ccc1F)c1cc2cc(CCl)ccc2oc1=O | 137 to 140

SMILES | melting point [°C]
CCOCc1nc2c(N)nc3cc(-n4ccnc4)ccc3c2n1CCCOC | 168 to 169
O=C(O)c1cn(C2CC2)c2c(F)c(N3CCN(O)CC3)c(F)cc2c1=O | 223 to 227
CCOC(=O)c1c(C2CC2)nn(CC)c1Cc1ccc(-c2ccccc2S(N)(=O)=O)cc1 | 54 to 58
C[C@H]1C(=O)NC2CCC(=O)N21 (stereo not given in full) | 84 to 86
COc1ccc(Oc2nc(Nc3cccc(C(=O)O)c3)nc(Oc3ccc(C#N)cc3)n2)cc1 | 240 to 242
COc1cccc(C(=O)O)c1C | 145 to 147
Clc1ccc2c(c1)C(c1ccccc1)NC1=NCCN12 (stereo not given) | 210 to 213
COc1ccccc1S(=O)(=O)N(C)c1cccc2cc(C3=NCC(CC(=O)N4CCC(O)CC4)S3)[nH]c12 (stereo not given) | 166 to 167
COc1cc(C=C(C(=O)O)c2ccc(O)cc2)cc(OC)c1 | 135 to 137
CN(C)CCCNC(=O)c1c2ccc(Cl)cc2c(-c2ccccc2)n1C | 146 to 148
COc1cccc(C2CCCCN(C)C2=O)c1 (stereo not given) | 73 to 74
Cc1nc2n(C)ccn2c(=O)c1CCCl | 198
CC#CCOc1cc(OCC#CC)ncn1 | 82.9
CCOC(=O)C1(NC(=O)c2ccc3c(Cl)cnc(Cl)c3c2)CCCC1 | 178 to 180
Cc1nc(C(=O)N(C)C)c2n1-c1ccc(Cl)cc1C(c1ccccc1)=NC2 | 173 to 175
CC(C)(C)c1ccc2oc(-c3ccc(C=Cc4ccc(-n5ncc(-c6ccccc6)n5)cc4)cc3)nc2c1 | 230 to 231
COC(=O)N1CCC(Nc2nc3ccccc3n2Cc2ccc(F)cc2)C(C)C1 (stereo not given) | 172
O=c1[nH]c(=O)c2cc(C(c3ccccc3)n3cncn3)ccc2[nH]1 (stereo not given) | 281
CC(C)n1c(=O)[nH]c2cccc(OCc3ccccc3)c21 | 224
O=C(O)CSC(F)(F)F | 130
CC(Cc1ccc(OCc2ccccc2)cc1)NC(=O)CC(c1ccccc1)c1ccccc1 (stereo not given) | 121 to 125
CN1C(=O)NC(Cc2c[nH]c3ccccc23)C1=O (stereo not given) | 207 to 210
CCc1nnc2c(NC3CCCCC3)nc3ccccc3n12 | 217 to 220
CCc1nn(CCOc2ccc(C=O)cc2)c(=O)c2ccccc12 | 110
